Data taken from patent publication US7960397B2, “6,9-disubstituted purine derivatives and their use as cosmetics and cosmetic compositions” (Institute of Experimental Botany, Academy of Sciences of …, priority 2007, dated 2011).

Legend:
[1] = tested on: Amaranthus caudatus cotyledon/hypocotyl explants; test: Amaranthus bioassay (betacyanin content); parameters: species or system Amaranthus caudatus var. atropurpurea; conditions: for concentration with highest activity: betacyanin content after 48 h incubation, tested 10^−8 M to 10^−4 M; for Activity (%) [10^−5 mol · l^−1 BAP = 100%]: betacyanin content at the concentration with highest activity, 10^−5 M BAP = 100%
Protocol: Testing of novel compounds for typical cytokinin activity in Amaranthus bioassay. A standard Amaranthus bioassay was performed with several modifications. The seeds of Amaranthus caudatus var. atropurpurea were surface-sterilized in 10% (w/v) N-chlorobenzenesulfonamide for 10 min and washed 5 times with deionized water. They were placed in 14 cm Petri dishes containing paper tissues saturated with deionized water. After 72 h of cultivation at 25° C. in darkness, the roots of the seedlings were cut off. The explants, consisting of two cotyledons and hypocotyls, were placed in 5 cm Petri dishes onto two layers of filter paper soaked with 1 ml of the incubation medium containing 10 mmol of NA2HPO4—KH2PO4, pH 6.8, 5 mmol of tyrosine and the compound to be tested. There were 20 explants per dish. The procedure was carried out under a green safe light in a darkroom. […] The concentration of betacyanin was determined from the absorbencies at 537 nm and 620 nm as follows: DA=A537 nm−A620 nm. […] Relative activity of the compound at this concentration was calculated. The activity obtained for 10^−5 M 6-benzylaminopurine (BAP) was defined as 100%.
(§1) The compounds to be tested were dissolved in dimethylsulfoxide (DMSO) and the solution brought up to 10^−3 M with distilled water.

[2] = tested on: cytokinin-dependent tobacco callus Nicotiana tabacum L. cv. Wisconsin 38; test: Cytokinin activity in tobacco callus bioassay; type: cell-based; conditions: for concentration with highest activity: growth of tobacco callus, four weeks of cultivation, tested 10^−8 M to 10^−4 M; for Activity (%) [10^−5 mol · l^−1 BAP = 100%]: increase of fresh callus weight at the concentration with highest activity, 10^−5 M BAP = 100%
Protocol: Estimation of cytokinin biological activity of novel compounds in callus bioassay. Cytokinin-dependent tobacco callus Nicotiana tabacum L. cv. […] Subcultivation was carried out every three weeks. Fourteen days before the bioassay, the callus tissue was transferred to the media without the compound tested. The biological activity was determined from the increase of the fresh callus weight after four weeks of cultivation. Five replicates were prepared for each concentration of the compound tested and the entire test was repeated twice. […] The relative activity of the compound at this concentration was calculated (Table 8). […] The compounds to be tested were dissolved in dimethylsulfoxide (DMSO) and the solution brought up to 10^−3 M with distilled water. This stock solution was further diluted with the respective media used for the biotest to a concentration ranging from 10^−8 M to 10^−4 M.

excised wheat leaf tips = test: Antisenescence test, retention of chlorophyll in excised wheat leaf tips; parameters: species or system Triticum aestivum cv. Hereward; conditions: for activity (%) [10^−4 mol · l^−1 BAP = 100%]: retention of chlorophyll in excised wheat leaf tips at the concentration with highest activity, 10 replicate determinations; for concentration with highest activity: retention of chlorophyll in excised wheat leaf tips, tested range 10^−8 M to 10^−4 M, 96 h in the dark at 25° C.
Protocol: Testing of antisenescence properties of novel cytokinin compounds on wheat leaf segments. Seeds of winter wheat, Triticum aestivum cv. Hereward, were washed under running water for 24 hours and then sown on vermiculite soaked with the Knop's solution. They were placed in the grow chamber at 25° C. with a 16 h-8 h light period at 50 mmol.m^−2.s^−1. After 7 days, the first leaf was fully developed and the second leaf had started to grow. A 35 mm long tip section of the first leaf, was removed from each of 5 seedlings and trimmed slightly to a combined weight of 100 mg. The basal ends of the five leaf tips were placed in the wells of a microtiter polystyrene plate containing […] of the solution of the tested compound each. The entire plate was inserted into a plastic box lined with paper tissues soaked with distilled water to prevent leaf sections from drying out. After 96 h incubation in the dark at 25° C., the leaves were removed and chlorophyll was extracted by heating at 80° C. for 10 min in 5 ml of 80% ethanol (v/v). The sample volume was then restored to 5 ml by the addition of 80% ethanol (v/v). The absorbance of the extract was recorded at 665 nm. In addition, chlorophyll extracts from fresh leaves and leaf tips incubated in deionized water were measured. […] Relative activity of the compound at this concentration was calculated (Table 7). The activity obtained for 10^−4 M 6-benzylaminopurine (BAP) was defined as 100%. The values shown are means of five replicates and the whole experiment was repeated twice.
as §1

[3] = tested on: human diploid fibroblasts (HCA cells, HCA20, HCA40, HCA60); test: Senescent cells (β-galactosidase staining) in culture of human fibroblasts; type: cell-based
Protocol: In this example, human diploid fibroblasts (HCA cells of various passage levels: passage 20—designated HCA20; passage 40—designated HCA40; passage 60—designated HCA60) were stained for β-galactosidase activity. The medium used for the cell cultivation was removed, the cells were washed twice in […], and fixed in 2-3 ml of fixing solution comprised of a 2% formaldehyde and 0.2% glutaraldehyde in PBS. The cells were incubated at room temperature for 5 minutes, and then washed twice with PBS. The cells were subsequently incubated at 37° C.

Structure (SMILES)	concentration with highest activity [1]	Activity (%) [10^−5 mol · l^−1 BAP = 100%] [1]	concentration with highest activity [2]	Activity (%) [10^−5 mol · l^−1 BAP = 100%] [2]	activity (%) [10^−4 mol · l^−1 BAP = 100%] (excised wheat leaf tips)	concentration with highest activity (excised wheat leaf tips)	SENESCENT CELLS (%) HCA20 ([3]; human fibroblasts passage 20 (HCA20))	SENESCENT CELLS (%) HCA40 ([3]; human fibroblasts passage 40 (HCA40))	SENESCENT CELLS (%) HCA60 ([3]; human fibroblasts passage 60 (HCA60))
COc1cccc(CNc2ncnc3c2ncn3CCCCCl)c1O	10^−4 mol · l^−1	53%	–	–	–	–	–	–	–
Oc1ccc(CNc2ncnc3c2ncn3C2CCCCO2)c(O)c1 (stereo not shown)	–	–	10^−5 mol · l^−1	5%	–	–	–	–	–
Oc1ccc(O)c(CNc2ncnc3c2ncn3C2CCCCO2)c1 (stereo not shown)	10^−4 mol · l^−1	35.1%	10^−5 mol · l^−1	20%	15%	10^−4 mol · l^−1	–	–	–
COc1ccc(CNc2ncnc3c2ncn3C2CCCO2)cc1O (stereo not shown)	10^−4 mol · l^−1	32%	10^−6 mol · l^−1	47%	35%	10^−4 mol · l^−1	–	–	–
Oc1cc(O)cc(CNc2ncnc3c2ncn3C2CCCCO2)c1 (stereo not shown)	10^−5 mol · l^−1	53%	10^−6 mol · l^−1	45%	145%	10^−4 mol · l^−1	–	–	–
COc1cc(O)cc(OC)c1CNc1ncnc2c1ncn2C1CCCO1 (stereo not shown)	10^−4 mol · l^−1	7%	10^−5 mol · l^−1	31%	14%	10^−4 mol · l^−1	–	–	–
Cc1cc(Nc2ncnc3c2ncn3C2CCCO2)ccc1O (stereo not shown)	10^−4 mol · l^−1	6%	10^−5 mol · l^−1	7%	4%	10^−4 mol · l^−1	–	–	–
CCOC(C)n1cnc2c(NCCC(C)CO)ncnc21 (stereo not shown)	10^−4 mol · l^−1	85%	10^−4 mol · l^−1	95%	94%	10^−4 mol · l^−1	–	–	–
CC(CO)CCNc1ncnc2c1ncn2CCCCCl (stereo not shown)	10^−4 mol · l^−1	81%	10^−4 mol · l^−1	84%	89%	10^−4 mol · l^−1	–	–	–
COc1cc(CNc2ncnc3c2ncn3C2CCCO2)cc(OC)c1O (stereo not shown)	10^−4 mol · l^−1	2%	10^−5 mol · l^−1	27%	36%	10^−4 mol · l^−1	–	–	–
COc1cccc(CNc2ncnc3[nH]cnc23)c1O [2-hydroxy-3-methoxybenzylamino / H, reference compound]	10^−4 mol · l^−1	19%	–	–	34%	10^−4 mol · l^−1	–	–	–
Oc1ccccc1CNc1ncnc2c1ncn2CCCCCl [2-hydroxybenzylamino / 4-chlorobutyl]	10^−4 mol · l^−1	47.5%	–	–	47.5%	10^−4 mol · l^−1	–	–	–
Oc1cc(O)cc(CNc2ncnc3[nH]cnc23)c1 [3,5-dihydroxybenzylamino / H, reference compound]	10^−5 mol · l^−1	53%	10^−6 mol · l^−1	39%	134%	10^−4 mol · l^−1	–	–	–
CCOC(C)n1cnc2c(NCc3cccc(O)c3)ncnc21 (stereo not shown) [3-hydroxybenzylamino / 1-ethoxyethyl]	10^−4 mol · l^−1	108.2%	10^−4 mol · l^−1	109.4%	108.2%	10^−4 mol · l^−1	–	–	–
Oc1cccc(CNc2ncnc3c2ncn3CCCCCl)c1 [3-hydroxybenzylamino / 4-chlorobutyl]	10^−4 mol · l^−1	102.5%	10^−4 mol · l^−1	111.6%	102.5%	10^−4 mol · l^−1	–	–	–
Cc1cc(CNc2ncnc3c2ncn3C2CCCO2)ccc1O (stereo not shown) [4-hydroxy-3-methylbenzylamino / tetrahydrofuran-2-yl]	10^−4 mol · l^−1	2%	10^−5 mol · l^−1	12%	1.4%	10^−4 mol · l^−1	–	–	–
CC(CO)CCNc1ncnc2[nH]cnc12 (stereo not shown) [4-hydroxy-3-methylbutylamino / H, reference compound]	10^−4 mol · l^−1	75%	10^−5 mol · l^−1	83.2%	89%	10^−4 mol · l^−1	–	–	–
Cc1cc(CNc2ncnc3c2ncn3C2CCCO2)ccc1O (stereo not shown) [4-hydroxy-5-methylbenzylamino / tetrahydrofuran-2-yl]	10^−4 mol · l^−1	22%	10^−5 mol · l^−1	2%	17%	10^−4 mol · l^−1	–	–	–
Oc1ccc(Nc2ncnc3c2ncn3C2CCCO2)cc1 (stereo not shown) [4-hydroxyanilino / tetrahydrofuran-2-yl]	10^−4 mol · l^−1	22%	10^−5 mol · l^−1	10%	28%	10^−4 mol · l^−1	–	–	–
Oc1ccc(Nc2ncnc3c2ncn3C2CCCCO2)cc1 (stereo not shown) [4-hydroxyanilino / tetrahydropyran-2-yl, 6-(4-hydroxyanilino)-9-(tetrahydropyran-2-yl)-purine]	10^−4 mol · l^−1	32%	10^−5 mol · l^−1	22%	–	–	4%	6%	16%
